Assay results published in the supplement of paper PMC10307832.

Assays:
Experiment in all cases: relative viability (nuclei count vs DMSO), 5 days (fraction); higher = more cells survive
[1] = compound: O=C(O)C(Cc1ccccc1[N+](=O)[O-])=NNc1nc(-c2ccc(Cl)c(Cl)c2)cs1 (mixture of isomers) [4EGI-1] + C[C@]1(O)C[C@@H](c2nc(-c3ccc4ccc(-c5ccccc5)nc4c3)c3c(N)nccn32)C1 [Linsitinib] (partner 1 µM)
How it was run: (§1)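 Values are medians from duplicate plates. Each reflects relative viability, defined as the nuclei count of treated wells over that of vehicle wells. Lung cancer cell lines in 1536-well plates were pin-tool dosed one day after seeding with one drug alone or with a fixed anchor-drug dose plus five library-drug doses (not always all listed) in √10 steps, then fixed, stained and imaged at 4× after 5 days.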

[2] = compound: CN1CCN(CC1)C2=CC(=C(C=C2)NC3=NC=C4C(=N3)N(C5=CC=CC=C5C(=O)N4C)C)OC [XMD8-85] + Nc1ncn([C@H]2C[C@H](O)[C@@H](CO)O2)c(=O)n1 [Decitabine] (partner 2 µM)
How it was run: as §1

[3] = compound: CN1CCN(CC1)C2=CC(=C(C=C2)NC3=NC=C4C(=N3)N(C5=CC=CC=C5C(=O)N4C)C)OC [XMD8-85] + CCNC(=O)c1noc(-c2cc(C(C)C)c(O)cc2O)c1-c1ccc(CN2CCOCC2)cc1 [Luminespib] (partner 0.01 µM)
How it was run: as §1

[4] = compound: CN1CCN(CC1)C2=CC(=C(C=C2)NC3=NC=C4C(=N3)N(C5=CC=CC=C5C(=O)N4C)C)OC [XMD8-85] + N=C(N)NC(=N)NCCc1ccccc1 [Phenformin] (partner 250 µM)
How it was run: as §1

| Cell Line | relative viability ([1]; first compound 0.5 µM) | relative viability ([1]; first compound 1.581 µM) | relative viability ([1]; first compound 5 µM) | relative viability ([1]; first compound 15.81 µM) | relative viability ([1]; first compound 50 µM) | relative viability ([2]; first compound 0.08 µM) | relative viability ([2]; first compound 0.253 µM) | relative viability ([2]; first compound 0.8 µM) | relative viability ([2]; first compound 8 µM) | relative viability ([3]; first compound 0.08 µM) | relative viability ([3]; first compound 0.253 µM) | relative viability ([3]; first compound 0.8 µM) | relative viability ([3]; first compound 2.53 µM) | relative viability ([3]; first compound 8 µM) | relative viability ([4]; first compound 0.08 µM) | relative viability ([4]; first compound 0.253 µM) | relative viability ([4]; first compound 0.8 µM) | relative viability ([4]; first compound 2.53 µM) | relative viability ([2]; first compound 2.53 µM) | relative viability ([4]; first compound 8 µM) |
| --- | --- | --- | --- | --- | --- | --- | --- | --- | --- | --- | --- | --- | --- | --- | --- | --- | --- | --- | --- | --- |
| NCI-H2347 | 1.08 | 0.805 | 0.96 | 0.944 | 0.87 | 0.599 | 0.619 | 0.583 | 0.531 | 0.545 | 0.405 | 0.243 | 0.208 | 0.306 | 0.357 | 0.382 | 0.388 | 0.393 | – | – |
| LXF-289 | 0.984 | 0.96 | 0.921 | 0.935 | 0.673 | 0.409 | 0.371 | 0.369 | 0.352 | 0.611 | 0.57 | 0.584 | – | 0.4 | 0.524 | 0.542 | 0.525 | 0.553 | 0.423 | – |
| NCI-H1666 | 0.804 | 0.771 | 0.778 | 0.583 | 0.291 | 0.703 | 0.724 | – | 0.68 | 1 | 1.03 | 0.986 | 1.04 | 0.877 | 0.578 | 0.601 | 0.574 | 0.567 | 0.692 | 0.576 |
| NCI-H2126 | 0.734 | 0.693 | 0.717 | 0.652 | 0.673 | 0.647 | 0.578 | 0.562 | 0.562 | 0.948 | 1 | 0.917 | 1.05 | 0.891 | 0.524 | 0.528 | 0.525 | 0.543 | 0.57 | 0.455 |
| NCI-H1993 | 0.754 | 0.757 | 0.737 | 0.699 | 0.706 | 0.543 | 0.555 | 0.585 | 0.57 | 0.79 | 0.837 | 0.929 | 0.928 | 0.746 | 0.565 | 0.64 | 0.512 | 0.436 | 0.561 | 0.495 |
| LOU-NH91 | 1.11 | – | 0.97 | 0.543 | 0.665 | 0.797 | 0.852 | 0.793 | 0.646 | 0.413 | 0.31 | 0.326 | 0.523 | 0.309 | 0.661 | 0.774 | – | 0.835 | 0.821 | 0.523 |
| NCI-H1437 | 1.16 | 1 | 0.919 | 0.241 | 0.152 | 0.641 | 0.534 | 0.596 | 0.501 | 1.15 | 1.19 | 1.15 | 1.07 | 0.813 | – | 0.299 | 0.338 | 0.329 | – | 0.268 |
| H3255 | 1.09 | 0.697 | 0.994 | 0.584 | 0.857 | 0.838 | 0.682 | 0.977 | 0.358 | 1.03 | 0.829 | 0.816 | 0.889 | 0.707 | 0.401 | 0.373 | 0.339 | 0.726 | 0.316 | – |
| NCI-H322M | 0.885 | 0.929 | 0.947 | 0.798 | 0.891 | 0.688 | 0.659 | 0.707 | 0.606 | 0.609 | 0.823 | 0.797 | 0.927 | 0.68 | 0.74 | – | 0.749 | 0.819 | 0.644 | 0.479 |
| UMC-11 | 1.06 | 1.18 | 1.02 | 0.987 | 0.399 | 0.568 | 0.618 | 0.594 | 0.544 | 0.972 | 1.01 | 1.08 | 0.941 | 0.671 | 0.337 | 0.348 | 0.398 | 0.33 | 0.545 | 0.232 |
| NCI-H661 | 0.723 | 0.502 | 0.624 | 0.394 | 0.309 | 0.589 | 0.552 | 0.629 | 0.553 | 1.06 | 0.952 | 1.01 | 1.04 | 0.806 | 0.292 | 0.287 | 0.278 | 0.276 | 0.62 | 0.287 |
| NCI-H1915 | 1.12 | 0.779 | 1.06 | 1.07 | 0.861 | 0.279 | 0.262 | 0.838 | 0.253 | 0.807 | 0.764 | 0.49 | 0.47 | 0.448 | 0.359 | 0.349 | 0.377 | 0.354 | 0.563 | 0.348 |
| NCI-H2009 | 1.33 | 1.23 | 1.29 | 1.07 | 0.885 | 0.42 | 0.371 | 0.414 | 0.255 | 1.01 | 1.01 | 1.05 | 0.898 | 0.564 | 0.496 | 0.504 | 0.496 | 0.42 | 0.417 | 0.306 |
| RERF-LC-KJ | 0.966 | 0.706 | 0.868 | 0.815 | 0.843 | – | 0.703 | 0.811 | 0.496 | 1.32 | 1.14 | 1.3 | 1.1 | 0.779 | 0.46 | 0.445 | 0.406 | 0.379 | 0.767 | 0.326 |
| 201T | 1.04 | 0.922 | 1.03 | 0.913 | 0.899 | 0.867 | 0.865 | 0.883 | 0.689 | 1.06 | 1.1 | 1.02 | 1.03 | 0.936 | 0.437 | 0.467 | 0.444 | 0.469 | 0.82 | 0.447 |
| HCC-827 | 0.969 | 0.866 | 0.905 | – | 0.878 | 0.389 | 0.356 | 0.316 | 0.369 | 0.834 | 0.486 | 0.756 | 0.797 | 0.614 | 0.389 | – | – | 0.49 | 0.374 | 0.45 |
| NCI-H838 | 1.19 | – | 1.02 | 0.854 | 0.434 | 0.572 | 0.46 | 0.476 | 0.354 | 0.234 | 0.225 | 0.29 | 0.389 | 0.189 | 0.528 | 0.553 | 0.604 | 0.617 | 0.449 | 0.283 |
